Experimental data: PubChem BioAssay AID488803 (Sanford-Burnham Center for Chemical Genomics, 2010)
The source made the active and inactive calls.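 How the source made its calls: active means mean IC50 below 10 µM; inactive means the rest.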

Molecular target: Apelin receptor (Homo sapiens) (UniProt P35414)
Assay: APJ antagonists, beta-arrestin recruitment, SAR follow-up, cell-based, luminescence, set 2 (AID 488803)
Settings: CHO-K1 APJ PathHunter beta-arrestin, antagonist

Sequence of Apelin receptor (Homo sapiens) (P35414 whole entry, looked up): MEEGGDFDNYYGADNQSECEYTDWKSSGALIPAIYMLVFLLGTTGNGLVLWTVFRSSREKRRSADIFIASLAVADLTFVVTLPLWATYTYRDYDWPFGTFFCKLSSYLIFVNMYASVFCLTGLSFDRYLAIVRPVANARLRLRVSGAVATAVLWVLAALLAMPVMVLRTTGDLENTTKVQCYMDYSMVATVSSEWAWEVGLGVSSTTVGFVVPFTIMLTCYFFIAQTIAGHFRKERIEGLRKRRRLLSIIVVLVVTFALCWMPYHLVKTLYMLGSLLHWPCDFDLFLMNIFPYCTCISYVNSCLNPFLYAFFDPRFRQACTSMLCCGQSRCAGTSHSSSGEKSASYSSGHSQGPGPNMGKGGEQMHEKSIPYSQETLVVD

| Structure (SMILES) | IC50 |
| --- | --- |
| COc1ccccc1NCC(=O)c1ccc(Cl)cc1 | 1.7 µM |
| O=C(O)CN1C(=O)C(=O)c2ccccc21 | > 79 µM (inactive) |
| COc1ccccc1NCC(O)c1ccc(Cl)cc1 (configuration not stated) | > 79 µM (inactive) |
| O=C(Oc1coc(CSc2ncccn2)cc1=O)c1ccc(Cl)c([N+](=O)[O-])c1 | 6.2 µM |
| O=C(Oc1coc(CSc2ncccn2)cc1=O)c1ccccc1 | > 79 µM (inactive) |
| CSc1cccc(N=C2C(=O)Nc3ccccc32)c1 | 9.84 µM |
| CN(C)S(=O)(=O)c1ccc(C(=O)Oc2coc(CSc3ncccn3)cc2=O)cc1 | > 79 µM (inactive) |
| Cc1ccccc1NCC(=O)c1ccc(Cl)cc1 | 1.42 µM |
| CCN(CC)S(=O)(=O)c1ccc(C(=O)Oc2coc(CSc3ncccn3)cc2=O)cc1 | > 79 µM (inactive) |
| O=c1cc(CSc2ncccn2)occ1O | > 79 µM (inactive) |
| O=C(Oc1coc(CSc2ncccn2)cc1=O)c1ccc(S(=O)(=O)N2CCOCC2)cc1 | > 79 µM (inactive) |
| O=c1cc(CSc2ccccc2)occ1O | > 79 µM (inactive) |
| Cc1ccnc(SCc2cc(=O)c(OC(=O)c3cc(Cl)ccc3[N+](=O)[O-])co2)n1 | inactive |
| COc1ccccc1NC(=O)CN1C(=O)C(=O)c2ccccc21 | inactive |
| O=C(Oc1coc(CSc2ncccn2)cc1=O)c1ccc(S(=O)(=O)N2CCCC2)cc1 | > 79 µM (inactive) |
| O=C(Oc1coc(CSc2ncccn2)cc1=O)c1cc(Cl)ccc1[N+](=O)[O-] | > 79 µM (inactive) |
| O=C(Oc1coc(CSc2ncccn2)cc1=O)c1ccc(S(=O)(=O)N2CCCCC2)cc1 | > 79 µM (inactive) |
| Cc1ccc(NCC(=O)c2ccccc2)cc1 | 2.53 µM |
| O=C(Oc1coc(CSc2ncccn2)cc1=O)c1ccc(C(F)(F)F)cc1 | inactive |
| CCCCOc1ccc(C(=O)Oc2coc(CSc3ncccn3)cc2=O)cc1 | > 79 µM (inactive) |
| O=c1cc(CCl)occ1O | > 79 µM (inactive) |
| COc1cc(C(=O)Oc2coc(CSc3ncccn3)cc2=O)c([N+](=O)[O-])cc1OC | > 79 µM (inactive) |
| Cc1ccnc(S(=O)(=O)Cc2cc(=O)c(OC(=O)c3ccc(Cl)c([N+](=O)[O-])c3)co2)n1 | 3.21 µM |
| Oc1cccc(CSc2ncccn2)c1 | > 79 µM (inactive) |

| Structure (SMILES) | IC50 |
| --- | --- |
| Cc1cc(C)nc(SCc2ccc(O)c(Cl)c2)n1 | > 79 µM (inactive) |
| O=C(Oc1coc(CSc2ncccn2)cc1=O)c1ccc(Cl)cc1 | inactive |
| Cc1ccnc(SCc2cccc(O)c2)n1 | > 79 µM (inactive) |
| Cc1ccnc(SCc2cc(=O)c(OC(=O)c3cccs3)co2)n1 | > 79 µM (inactive) |
| CC(C)OC(=O)CN1C(=O)C(=O)c2ccccc21 | > 79 µM (inactive) |
| Cc1c(C(=O)Oc2coc(CSc3ncccn3)cc2=O)cccc1[N+](=O)[O-] | inactive |
| Cc1ccc(NCC(O)c2ccccc2)cc1 (configuration not stated) | > 79 µM (inactive) |
| Cc1ccnc(SCc2cc(=O)c(OCc3ccccc3)co2)n1 | > 79 µM (inactive) |
| O=C(Oc1coc(CSc2ncccn2)cc1=O)c1cc([N+](=O)[O-])ccc1Cl | inactive |
| O=C(Oc1coc(CSc2ncccn2)cc1=O)c1ccc(F)cc1 | > 79 µM (inactive) |
| N#Cc1ccc(C(=O)Oc2coc(CSc3ncccn3)cc2=O)cc1 | 6.59 µM |
| O=C(Oc1coc(CSc2ncccn2)cc1=O)c1ccc(Br)cc1 | inactive |
| Cc1cc(C)nc(SCc2cccc(O)c2)n1 | > 79 µM (inactive) |
| O=C(Oc1coc(CSc2ncccn2)cc1=O)c1ccc(-c2ccccc2)cc1 | > 79 µM (inactive) |
| O=C(COC(=O)c1cccnc1)c1ccc(Cl)cc1 | > 79 µM (inactive) |
| Cc1ccnc(SCc2cc(=O)c(O)co2)n1 | > 79 µM (inactive) |
| Cc1ccnc(SCc2cc(=O)c(OC(=O)c3ccc(S(=O)(=O)N4CCCC4)cc3)co2)n1 | > 79 µM (inactive) |
| Cc1cc(C)nc(SCc2cc(=O)c(O)co2)n1 | > 79 µM (inactive) |
| CCOc1ccc(C(=O)Oc2coc(CSc3ncccn3)cc2=O)cc1 | > 79 µM (inactive) |
| COc1ccc(NC2C(=O)Nc3ccccc32)cc1 (configuration not stated) | > 79 µM (inactive) |
| O=C(Oc1coc(CSc2ccccc2)cc1=O)c1ccc(Cl)c([N+](=O)[O-])c1 | 9.61 µM |
| O=C(Oc1coc(CSc2ncccn2)cc1=O)c1cccc([N+](=O)[O-])c1 | inactive |
| C=CCOc1ccc(COc2ccccc2)cc1 | > 79 µM (inactive) |

Results, then the compound that gave them:

| IC50 | Structure (SMILES) |
| --- | --- |
| inactive | C=CCSC1=NC2(CC(c3ccc(C)cc3)c3c(C)cc(OC(C)=O)cc3O2)CC(C)(C)N1 (configuration not stated) |
| inactive | COc1ccc(C2CC3(CC(C)(C)NC(=S)N3)Oc3cc(OC(C)=O)cc(C)c32)cc1 (configuration not stated) |
| > 79 µM (inactive) | Cc1ccc(C(=O)Oc2coc(CSc3nccc(C)n3)cc2=O)cc1 |
| inactive | Cc1ccc(N=C2C(=O)Nc3ccccc32)cc1 |
| inactive | Cc1cccc(C2CC3(CC(C)(C)NC(=S)N3)Oc3cc(O)c(Cl)cc32)c1 (configuration not stated) |
| > 79 µM (inactive) | Cc1c(O)ccc2c1OC1(CC2c2ccccc2Cl)CC(C)(C)NC(=S)N1 (configuration not stated) |
| inactive | Cc1ccnc(SCc2cc(=O)c(OC(=O)c3ccccc3Cl)co2)n1 |
| inactive | Cc1cccc(C2CC3(CC(C)(C)NC(=S)N3)Oc3cc(O)cc(C)c32)c1 (configuration not stated) |
| > 79 µM (inactive) | CC(=O)Oc1cc2c(cc1Cl)C(c1ccccc1Cl)CC1(CC(C)(C)NC(=S)N1)O2 (configuration not stated) |
| 4.7 µM | Cc1ccnc(SCc2cc(=O)c(OC(=O)c3ccc(C)c([N+](=O)[O-])c3)co2)n1 |
| > 79 µM (inactive) | Cc1ccnc(SCc2cc(=O)c(OC(=O)c3ccc(Cl)cc3)co2)n1 |
| inactive | COc1ccc(C2CC3(CC(C)(C)NC(=S)N3)Oc3cc(O)cc(C)c32)cc1 (configuration not stated) |
| > 79 µM (inactive) | CC(C)(C)c1ccc(C(=O)Oc2coc(CSc3ncccn3)cc2=O)cc1 |
| > 79 µM (inactive) | Cc1ccc(C)c(NCC(O)c2ccc(Cl)cc2)c1 (configuration not stated) |
| 7.25 µM | Cc1ccc(C(=O)Oc2coc(CSc3ncccn3)cc2=O)cc1[N+](=O)[O-] |
| > 79 µM (inactive) | Cc1cc(C)nc(SCc2cc(=O)c(OC(=O)c3cc(Cl)ccc3[N+](=O)[O-])co2)n1 |
| > 79 µM (inactive) | C=CCOc1ccc(CSc2nc(C)cc(C)n2)cc1OC |
| > 79 µM (inactive) | Cc1ccnc(SCc2cc(=O)c(OC(=O)c3ccccc3C)co2)n1 |
| 8.51 µM | Cc1ccnc(SCc2cc(=O)c(OC(=O)c3ccc(C#N)cc3)co2)n1 |
| > 79 µM (inactive) | Cc1cc(C)nc(SCc2cc(=O)c(OC(=O)c3cccc([N+](=O)[O-])c3C)co2)n1 |
| inactive | CC1(C)CC2(CC(c3ccc(Cl)cc3)c3ccc(O)cc3O2)NC(=S)N1 (configuration not stated) |
| > 79 µM (inactive) | Cc1ccc(C(=O)Oc2coc(CSc3ncccn3)cc2=O)cc1 |
| > 79 µM (inactive) | Cc1ccnc(SCc2cc(=O)c(OC(=O)c3ccc(OC(F)(F)F)cc3)co2)n1 |
| > 79 µM (inactive) | Cc1ccc(C(=O)Oc2coc(CSc3ncccn3)cc2=O)cc1C |
| > 79 µM (inactive) | Cc1cc(C)nc(SCc2cc(=O)c(OC(=O)c3ccc(S(=O)(=O)N(C)C)cc3)co2)n1 |
| > 79 µM (inactive) | C=CCOc1ccc(CSc2nccc(C)n2)cc1 |
| > 79 µM (inactive) | Cc1ccnc(SCc2cc(=O)c(OC(=O)c3ccc(F)cc3)co2)n1 |
| > 79 µM (inactive) | Cc1c(O)ccc2c1OC1(CC2c2ccccc2Cl)CC(C)(C)NC(=O)N1 (configuration not stated) |

| IC50 | Structure (SMILES) |
| --- | --- |
| > 79 µM (inactive) | CSC1=NC2(CC(c3ccccc3)c3cc(Cl)c(O)cc3O2)CC(C)(C)N1 (configuration not stated) |
| > 79 µM (inactive) | Cc1cccc(C(=O)Oc2coc(CSc3nccc(C)n3)cc2=O)c1 |
| > 79 µM (inactive) | C=CCOc1cccc(CSc2nc(C)cc(C)n2)c1 |
| > 79 µM (inactive) | Cc1ccnc(SCc2cc(=O)c(OC(=O)c3cccc(Cl)c3)co2)n1 |
| > 79 µM (inactive) | COc1cc(CSc2nc(C)cc(C)n2)ccc1O |
| > 79 µM (inactive) | C=CCOc1ccc(CSc2nc(C)cc(C)n2)cc1Cl |
| inactive | CC1(C)CC2(CC(c3ccccc3Cl)c3cc(Cl)c(OC(=O)C4CC4)cc3O2)NC(=S)N1 (configuration not stated) |
| inactive | Cc1ccccc1C1CC2(CC(C)(C)NC(=S)N2)Oc2cc(O)c(Cl)cc21 (configuration not stated) |
| inactive | Cc1cc(C)nc(SCc2cc(=O)c(OC(=O)c3ccc(C)c([N+](=O)[O-])c3)co2)n1 |
| inactive | CC1(C)CC2(CC(c3ccccc3Cl)c3ccc(OC(=O)c4ccccc4)cc3O2)NC(=S)N1 (configuration not stated) |
| > 79 µM (inactive) | CC1(C)CC2(CC(c3ccccc3Cl)c3ccc(O)cc3O2)NC(=O)N1 (configuration not stated) |
| 5.45 µM | Cc1cc(C)nc(SCc2cc(=O)c(OC(=O)c3ccc(Cl)c([N+](=O)[O-])c3)co2)n1 |
| > 79 µM (inactive) | COc1ccc(C(=O)Oc2coc(CSc3ncccn3)cc2=O)cc1 |
| > 79 µM (inactive) | COc1ccc(C(=O)Oc2coc(CSc3nccc(C)n3)cc2=O)cc1 |
| > 79 µM (inactive) | COc1cccc(C(=O)Oc2coc(CSc3nccc(C)n3)cc2=O)c1 |
| > 79 µM (inactive) | C=CCOc1cccc(CSc2nccc(C)n2)c1 |
| 4.32 µM | Cc1ccnc(SCc2cc(=O)c(OC(=O)c3ccc([N+](=O)[O-])cc3)co2)n1 |
| > 79 µM (inactive) | Cc1cccc(C2CC3(CC(C)(C)NC(=O)N3)Oc3cc(O)c(Cl)cc32)c1 (configuration not stated) |
| 6.88 µM | CC1(C)CC2(CC(c3ccccc3Cl)c3ccc(O)cc3O2)NC(=S)N1 (configuration not stated) |
| > 79 µM (inactive) | Cc1cc(C)nc(SCc2ccc(OC(=O)c3ccccc3)c(Cl)c2)n1 |
| inactive | Cc1ccnc(SCc2cc(=O)c(OC(=O)c3cc([N+](=O)[O-])ccc3Cl)co2)n1 |
| > 79 µM (inactive) | CC(C)Oc1ccc(C(=O)Oc2coc(CSc3ncccn3)cc2=O)cc1 |
| inactive | Cc1ccnc(SCc2cc(=O)c(OC(=O)c3cccc([N+](=O)[O-])c3)co2)n1 |
| > 79 µM (inactive) | CC1(C)CC2(CC(c3ccc(F)cc3)c3ccc(O)cc3O2)NC(=S)N1 (configuration not stated) |
| inactive | Cc1ccnc(SCc2cc(=O)c(OC(=O)c3ccc(C(F)(F)F)cc3)co2)n1 |
| > 79 µM (inactive) | C=CCSC1=NC2(CC(c3ccccc3)c3c(C)cc(O)cc3O2)CC(C)(C)N1 (configuration not stated) |
| > 79 µM (inactive) | Cc1ccnc(SCc2cc(=O)c(OC(=O)c3ccco3)co2)n1 |
